Literature values, collected in patent US12343320B2, “Intraveneous dofetilide to reduce the risk of developing AF/AFL post coronary bypass surgery” (Hyloris Developments SA, priority 2023, dated 2025).

Assays:
QTc interval = settings: average slope; Sedgwick et al 1991
[1] = IV dose of 1.5 μg/kg, restated rounded

peak level [1]: 1.7 ng/mL
Structure (SMILES): CN(CCOc1ccc(NS(C)(=O)=O)cc1)CCc1ccc(NS(C)(=O)=O)cc1 [dofetilide, Dofetilide]
QTc change per dofetilide plasma concentration, average (QTc interval): 20 ms
